According to PMC12196251, “Synthesis of New DltA Inhibitors and Their Application as Adjuvant Antibiotics to Re-Sensitize Methicillin-Resistant Staphylococcus aureus” (Molecules, 2025):
Values joined by “and” are separate entries in the source; they are usually repeats but may differ in a detail not shown here. Identical values can stand only once. Counter-ions that a name gives are not always drawn. Like-named read-outs stand apart in the source and are kept apart here.

What was measured:
[1] = target: T1, recombinant DltA from E. faecalis (Enterococcus faecalis, UniProt Q830N0); experiment: DltA enzyme inhibition, PPi release coupled-enzyme assay; format: biochemical
T1 construct: made in house; host or cells: E. coli
T1 sequence (Q830N0 1-506): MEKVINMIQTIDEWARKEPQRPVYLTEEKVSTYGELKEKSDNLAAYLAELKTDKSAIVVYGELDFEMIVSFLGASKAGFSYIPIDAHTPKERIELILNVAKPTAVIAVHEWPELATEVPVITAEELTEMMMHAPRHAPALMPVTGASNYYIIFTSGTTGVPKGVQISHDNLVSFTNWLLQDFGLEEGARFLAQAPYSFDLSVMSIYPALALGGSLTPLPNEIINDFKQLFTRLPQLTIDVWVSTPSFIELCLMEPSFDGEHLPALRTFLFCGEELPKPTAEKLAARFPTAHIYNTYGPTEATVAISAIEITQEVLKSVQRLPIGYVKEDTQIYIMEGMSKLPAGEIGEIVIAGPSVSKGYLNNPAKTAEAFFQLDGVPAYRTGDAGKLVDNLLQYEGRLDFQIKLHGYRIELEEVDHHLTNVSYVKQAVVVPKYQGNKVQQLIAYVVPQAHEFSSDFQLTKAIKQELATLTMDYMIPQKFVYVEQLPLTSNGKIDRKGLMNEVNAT
Procedure: (§1) All new compounds were then evaluated in vitro for enzyme inhibition against recombinant DltA from E. faecalis or S. epidermis. Half-maximal inhibitory concentrations (IC50) were then determined by measuring the amount of PPi released at different inhibitor concentrations (Table 2). […] We noticed the DltA enzyme tolerated the presence of various modifications on the 2′-position, but the activity was inversely related to the size of the introduced group. […] Despite a good predicted binding affinity (−8.7 Kcal/mol), we hypothesize that the lower activity could be explained by the fact that the squaramide nitrogen atom might not be under its anionic form, as is the case with sulfamate 1.
(§2) The DltA-catalyzed ATP-hydrolysis reaction was monitored in vitro via PPi release (DltA +D-alanine +ATP → DltA-DAla-AMP +PPi) using a coupled-enzyme assay. The purified DltA was pretreated with DltC purified from E. coli to clear D-Ala-AMP already present in the enzyme preparation after expression in E. coli. Holo-DltC is the natural protein partner of DltA, and DltC purified from E. coli BL21 (DE3) contained 51% of this active form of DltC as determined by HPLC analysis. DltA was pretreated with DltC (ratio 1:1.2), incubated for 30 min at 37 °C and 30 min at 4 °C. Three successive washes were realized on Amicon Ultra-2 Centrifugal Filter Unit—Ultracel 30 membrane 30 kDa MWCO (Merck, Darmstadt, Germany) with elution buffer EB at 4 °C. The components of the coupled enzyme assay included 1.5 μM pre-treated DltA, 20 μM of ATP, and 14 μM of D-alanine. The half-maximal inhibitory concentration (IC50) of potential DltA inhibitors was determined by the addition of different concentrations of the synthesized molecules. PPi release was determined using the PiPer—Pyrophosphate assay kit (Invitrogen, Waltham, MA, USA) according to the recommendation of the supplier. Reactions were carried out in 96-well Chimney Style, non-binding Microplates with μClear Film Bottom (Greiner Bio-one, Frickenhausen, Germany). Plates were incubated at 37 °C for 5 h and read in a FlexStation 3 Multi-Mode plate reader (Molecular Devices, Silicon Valley, CA, USA), with λ excitation of 530 nm and λ emission of 590 nm. Experiments were conducted in sextuplicate, and the IC50 was determined by linear regression of the curve.

[2] = target: T2, recombinant DltA from S. epidermidis (Staphylococcus epidermidis, UniProt Q5HQN0); experiment: as above; format: biochemical
T2 construct: made in house; host or cells: E. coli
T2 sequence (Q5HQN0 1-485): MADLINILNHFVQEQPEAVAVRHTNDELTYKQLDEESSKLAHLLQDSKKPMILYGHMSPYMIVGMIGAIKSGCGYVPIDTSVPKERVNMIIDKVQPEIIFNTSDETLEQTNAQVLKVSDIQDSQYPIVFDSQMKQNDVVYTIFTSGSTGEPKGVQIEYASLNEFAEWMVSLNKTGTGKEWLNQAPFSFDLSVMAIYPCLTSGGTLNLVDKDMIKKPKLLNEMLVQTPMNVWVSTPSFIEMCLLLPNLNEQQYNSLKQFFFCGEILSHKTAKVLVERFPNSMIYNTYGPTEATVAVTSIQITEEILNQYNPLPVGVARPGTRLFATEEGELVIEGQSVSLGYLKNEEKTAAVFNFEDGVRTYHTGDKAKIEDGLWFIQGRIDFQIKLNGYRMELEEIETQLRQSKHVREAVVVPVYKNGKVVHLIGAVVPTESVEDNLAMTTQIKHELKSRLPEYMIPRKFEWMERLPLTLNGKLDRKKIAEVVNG
Procedure: as §1, §2

DltA = target: DltA; set-up: method as in PMID 15955059; settings: DltA inhibitor; cited from earlier work
MRSA clinical isolates [3] = test system: MRSA clinical isolates; set-up: method as in PMID 31339997, PMID 34450626, PMID 40116514; settings: S. aureus (MRSA); in presence of inhibitor 1; previously reported; cited from earlier work
[4] = test system: D-alanyl ester of the MRSA cell wall; experiment: Quantification of D-alanyl ester in the bacterial cell wall; format: cell-based, S. aureus; settings: inhibitor at 1 mM, value (spread)
Procedure: (§3) All these compounds were also tested […] against MRSA clinical isolates. […] The minimum inhibitory concentrations (MICs) of imipenem (IPM) were next determined in the absence or presence of 1 mM of the different DltA inhibitors to evaluate their potential to re-sensitize MRSA to this β-lactam (Table 2). […] To clarify this hypothesis, quantification of D-alanyl ester of the MRSA cell wall was performed as previously described in the presence of inhibitors (Table 2). […] These new series represent a promising structure entry not reported yet for the inhibition of DltA and the re-sensitization of bacteria toward known antibiotics.
Ester-linked D-alanines were quantified as described previously, with the following modifications. Cultures were grown in 5 mL of BHI supplemented with DltA inhibitor to a final concentration of 0.05, 0.1, 0.25, 0.5, 0.75, or 1 mM for 16 h at 37 °C under shaking (120 rpm). Briefly, the quantification is based on the oxidation of a chromogen by H2O2 generated when free D-alanines are oxidized by a D-amino acid oxidase. Three independent experiments with duplicate samples were performed.

MRSA clinical isolates [5] = experiment: MIC of imipenem against MRSA in absence or presence of DltA inhibitor; format: cell-based, S. aureus; settings: Staphylococcus aureus, MRSA, in presence of 1 mM of the DltA inhibitor
Procedure: as §3
Colonies from BHI agar plates were suspended in saline solution (0.9% NaCl) and adjusted to an OD600 of 0.5. For growth kinetics determination, 96-well microplates (Starlab, Orsay, France) containing 200 μL of fresh BHI medium were inoculated with bacterial suspensions to an OD600 of 0.02 with a wide range of DltA inhibitors (from 0 to 2 mM). Plates were incubated at 37 °C with shaking (orbital amplitude of 3 mm) in a microplate reader (InfiniteM Nano, Tecan, Seoul, Republic of Korean). OD600nm was measured every 10 min for 24 h. Determination of MIC/MBC of antibiotics and bacterial survival assays were performed as previously described using BHI medium. The DltA inhibitor was diluted in pure water and added to the growth medium to a final concentration of 0, 0.1, 0.25, 0.5, 0.75, or 1 mM.

[6] = target: T1, recombinant DltA from E. faecalis; set-up: method as in doi:10.1002/ejoc.202300258; settings: previous reported work; cited from earlier work
[7] = S. aureus (MRSA), read-out: MIC of IPM
[8] = read-out: MIC of IPM, S. aureus (MRSA)

SMILES | IC50 [1] [nM] | IC50 [2] [nM] | Ki (DltA) [nM] | MIC of IPM (MRSA clinical isolates [3]) [µg/mL] | Reduction in D-Ala Ester Residues [4] | MIC (MRSA clinical isolates [5]; [7]) [µg/mL] | IC50 [6] [nM] | MIC (MRSA clinical isolates [5]; [8]) [µg/mL]
C[C@@H](N)C(=O)NS(=O)(=O)OC[C@H]1O[C@@H](n2cnc3c(N)ncnc32)[C@H](O)[C@@H]1O [Compound 1, reference compound] | 2300 | 2400 | 200 | 0.25 | 86.7% and 86.7 (10.5) % | – | – | –
CC(N)C(=O)NS(=O)(=O)NCC1OC(n2cnc3c(N)ncnc32)C(O)C1O [Compound 30, (R)-2-amino-N-(N-(((2R,3S,4R,5R)-5-(6-amino-9H-purin-9-yl)-3,4-dihydroxytetrahydrofuran-2-yl)methyl)sulfamoyl)propenamide salt] | 1800 | 2000 | – | – | 80.9% and 80.9 (18.4) % | 1 | – | –
C[C@@H](N)C(=O)c1cn(C/C(CO)=C(\F)Cn2cnc3c(N)ncnc32)nn1 [Compound 39] | – | – | – | – | 0% | – | 7400 | 16
C[C@@H](N)C(=O)c1cn(C[C@H]2O[C@@H](n3cnc4c(N)ncnc43)[C@H](O)[C@@H]2O)nn1 [Compound 40] | – | – | – | – | – | – | 4500 | 8
CC(N)C(=O)NS(=O)(=O)NCC1OC(n2cnc3c(N)ncnc32)C(F)C1O [Compound 31, (R)-2-amino-N-(N-(((2R,3R,4R,5R)-5-(6-amino-9H-purin-9-yl)-4-fluoro-3-hydroxytetrahydrofuran-2-yl)methyl)sulfamoyl)propenamide salt] | 3200 | – | – | – | 0% | 32 | – | –
C[C@@H](N)C(=O)NS(=O)(=O)OC[C@H]1O[C@@H](n2cnc3c(N)ncnc32)[C@H](F)[C@@H]1O [Compound 8, ((2R,3R,4R,5R)-5-(6-amino-9H-purin-9-yl)-4-fluoro-3-hydroxytetrahydrofuran-2-yl)methyl (D-alanyl)sulfamate salt] | 2600 | – | – | – | 0% | 16 | – | –
